Where “and” joins values, the source holds several entries; their conditions need not be identical. Equal entries are not always repeated.
Experiment: Single dose 300 mg / 450 mg pharmacokinetic, safety and tolerability study in healthy male and female subjects
Conditions: for concentration at 0.5 h / concentration at 1 h / concentration at 2 h / concentration at 3 h / concentration at 4 h / concentration at 6 h / concentration at 8 h / concentration at 10 h / concentration at 12 h / concentration at 18 h / concentration at 24 h / concentration at […] / half-life / AUC(0-t) / Cmax / Tmax / concentration at 0 h: plasma, po; for Percent of Dose in Urine (0-24 hr) / Ratio DOV 216,298/DOV 21,947 in urine (0-24 hr): Mean (SD)
[1] = single oral 300 mg DOV 21,947 HCl IR
[2] = single oral 450 mg DOV 21,947 HCl IR

From the text: Fourteen subjects, divided equally between males and females, were enrolled in the study and randomized between test article (5/sex) and placebo (2/sex). […] All subjects met the inclusion and exclusion criteria for entry into the study as detailed in the protocol and signed an informed consent form.
The subjects were confined to the clinical study site from Day −1 to the morning of Day 2, when they underwent a brief physical examination, clinical laboratory tests, and a physician visit before they were discharged. On Day 7, they reported to the clinical site again and were confined to the site until the morning of Day 9. At that time, they underwent a complete physical examination, clinical laboratory tests, and a physician's visit before they were discharged from the study. All subjects were fasted overnight on Days −1 and 7 from approximately 22:00 to approximately 4 hours post-dose on Days 1 and 8, at which time they received a standard lunch.
Subjects that received the placebo (2/sex) ingested six identical looking capsules with no drug. […] Capsules on both days were ingested with 240 mL water. […] Samples were collected into lithium heparin-containing Vacutainers® and centrifuged at approximately 3000 rpm to obtain the plasma fraction. The plasma was split into two polypropylene tubes and stored at −20° C. […] The urine volumes were recorded and an aliquot was stored for drug concentration measurements.
Validated LC/MS/MS assays were used for analyses; the assay range for both analytes in plasma and urine were 5.00 to 2000 ng/mL.
Plasma concentration-time data for each subject were analyzed with WinNonlin, version 4.1 (Pharsight Corporation, Mountain View, Calif.) using a non-compartmental model. […] Plasma concentrations listed as not detected (ND) or below the lower limit of quantitation (LLOQ) were set to zero. The values of Cmax and Tmax were the observed values for each subject. AUC0-t was determined using the linear trapezoidal rule whenever the concentration data were increasing and the logarithmic trapezoidal rule any time that the concentration data were decreasing. The apparent λz was calculated as the negative slope of the log-linear terminal portion of the blood concentration-time curve using linear regression. To allow for accurate calculation of λz, a minimum of three observations, selected by WinNonlin, was used. The t½ was calculated as ln 2/λz. AUC0-t was extrapolated to infinity (AUC0-∞) as follows: AUC0-∞=AUC0-t+Clast/λz where Clast is the last quantifiable concentration. The apparent oral clearance (CL/F) was calculated as Dose/AUC0-∞. The apparent oral volume of distribution (Vz/F) was calculated as Dose/λz×AUC0-∞. The mean residence time from time zero to infinity (MRT0-∞) was calculated as AUMC0-∞/AUC0-∞.

O=C1NCC2(c3ccc(Cl)c(Cl)c3)CC12 (stereo not drawn) [EB-10101, 5-(3,4-dichloro-phenyl)-3-aza-bicyclo[3.1.0]hexan-2-one]
concentration at 0.5 h (female, human, 450 mg): 0.0352 µg/mL
concentration at 1 h (female, human, 450 mg): 0.285 µg/mL
concentration at 2 h (female, human, 450 mg): 1.03 µg/mL
concentration at 3 h (female, human, 450 mg): 1.65 µg/mL
concentration at 4 h (female, human, 450 mg): 2.18 µg/mL
concentration at 6 h (female, human, 450 mg): 2.71 µg/mL
concentration at 8 h (female, human, 450 mg): 2.99 µg/mL
concentration at 10 h (female, human, 450 mg): 3.03 µg/mL
concentration at 12 h (female, human, 450 mg): 2.93 µg/mL
concentration at 18 h (female, human, 450 mg): 2.14 µg/mL
concentration at 24 h (female, human, 450 mg): 2.39 µg/mL
concentration at […] (female, human, 450 mg): 0 µg/mL and 0.155 µg/mL and 0.539 µg/mL and 0.66 µg/mL
half-life (female, human, 450 mg, t½ (Harmonic mean), single oral 450 mg DOV 21,947 HCl IR, N = 5): 24.5 h
half-life (female, human, 450 mg, t½, single oral 450 mg DOV 21,947 HCl IR, N = 5, arithmetic mean): 41.8 h
exposure to lactam greater than parent drug over 24 hr (human, in vivo): approximately 70%
AUC(0-t) (male, human, 300 mg): 29.2 µg·h/mL
Cmax (male, human, 300 mg): 1.74 µg/mL
Tmax (male, human, 300 mg): 6.4 h
concentration at 0 h (male, human, 300 mg): 0 µg/mL
concentration at 0.5 h (male, human, 300 mg): 0.0629 µg/mL
concentration at 1 h (male, human, 300 mg): 0.404 µg/mL
concentration at 2 h (male, human, 300 mg): 1.04 µg/mL
concentration at 3 h (male, human, 300 mg): 1.49 µg/mL
concentration at 4 h (male, human, 300 mg): 1.47 µg/mL
concentration at 6 h (male, human, 300 mg): 1.52 µg/mL
concentration at 8 h (male, human, 300 mg): 1.59 µg/mL
concentration at 10 h (male, human, 300 mg): 1.67 µg/mL
concentration at 12 h (male, human, 300 mg): 1.41 µg/mL
concentration at 18 h (male, human, 300 mg): 1.1 µg/mL
concentration at 24 h (male, human, 300 mg): 0.82 µg/mL
concentration at […] (male, human, 300 mg): 0.00303 µg/mL and 0.238 µg/mL and 0.629 µg/mL and 0.753 µg/mL
half-life (male, human, 300 mg, t½ (Harmonic mean), single oral 300 mg DOV 21,947 HCl IR, N = 5): 13.7 h
half-life (male, human, 300 mg, t½, single oral 300 mg DOV 21,947 HCl IR, N = 5, arithmetic mean): 15.3 h
AUC(0-t) (male, human, 450 mg): 46.1 µg·h/mL
Cmax (male, human, 450 mg): 2.55 µg/mL
Tmax (male, human, 450 mg): 9.2 h
concentration at 0 h (male, human, 450 mg): 0 µg/mL
concentration at 0.5 h (male, human, 450 mg): 0.107 µg/mL
concentration at 1 h (male, human, 450 mg): 0.388 µg/mL
concentration at 2 h (male, human, 450 mg): 1.62 µg/mL
concentration at 3 h (male, human, 450 mg): 1.98 µg/mL
concentration at 4 h (male, human, 450 mg): 2.15 µg/mL
concentration at 6 h (male, human, 450 mg): 2.32 µg/mL
concentration at 8 h (male, human, 450 mg): 2.36 µg/mL
concentration at 10 h (male, human, 450 mg): 2.52 µg/mL
concentration at 12 h (male, human, 450 mg): 2.31 µg/mL
concentration at 18 h (male, human, 450 mg): 1.88 µg/mL
concentration at 24 h (male, human, 450 mg): 1.45 µg/mL
concentration at […] (male, human, 450 mg): 0 µg/mL and 0.214 µg/mL and 0.752 µg/mL and 0.954 µg/mL
half-life (male, human, 450 mg, t½ (Harmonic mean), single oral 450 mg DOV 21,947 HCl IR, N = 5): 16.6 h
half-life (male, human, 450 mg, t½, single oral 450 mg DOV 21,947 HCl IR, N = 5, arithmetic mean): 23.4 h
λz (single oral 300 mg DOV 21,947 HCl IR, Female, N = 5): 0.046^b hr^−1
λz (single oral 300 mg DOV 21,947 HCl IR, Male, N = 5): 0.051 h⁻¹
Percent of Dose in Urine (0-24 hr) [1]: 0.075 (0.024) Percent of Dose
Ratio DOV 216,298/DOV 21,947 in urine (0-24 hr) [1]: 0.195 (0.092)
Mean Amount in Urine (single oral 300 mg DOV 21,947 HCl IR, Period 0-1 hr): 0.0 µg
Mean Amount in Urine (single oral 300 mg DOV 21,947 HCl IR, Period 1-2 hr): 2.7 µg
Mean Amount in Urine (single oral 300 mg DOV 21,947 HCl IR, Period 2-4 hr): 52.5 µg
Mean Amount in Urine (single oral 300 mg DOV 21,947 HCl IR, Period 4-8 hr): 56.2 µg
Mean Amount in Urine (single oral 300 mg DOV 21,947 HCl IR, Period 8-12 hr): 34.8 µg
Mean Amount in Urine (single oral 300 mg DOV 21,947 HCl IR, Period 12-24 hr): 47.8 µg
Mean Amount in Urine (single oral 300 mg DOV 21,947 HCl IR, Total (0-24 hr)): 194 µg
λz (single oral 300 mg DOV 21,947 HCl IR, mean, N = 10): 0.049^b hr^−1
λz (single oral 450 mg DOV 21,947 HCl IR, Female, N = 5): 0.028 h⁻¹
λz (single oral 450 mg DOV 21,947 HCl IR, Male, N = 5): 0.042 h⁻¹
Percent of Dose in Urine (0-24 hr) [2]: 0.067 (0.035) Percent of Dose
Ratio DOV 216,298/DOV 21,947 in urine (0-24 hr) [2]: 0.256 (0.173)
Mean Amount in Urine (single oral 450 mg DOV 21,947 HCl IR, Period 0-1 hr): 0.0 µg
Mean Amount in Urine (single oral 450 mg DOV 21,947 HCl IR, Period 1-2 hr): 2.1 µg
Mean Amount in Urine (single oral 450 mg DOV 21,947 HCl IR, Period 2-4 hr): 45.2 µg
Mean Amount in Urine (single oral 450 mg DOV 21,947 HCl IR, Period 4-8 hr): 89.3 µg
Mean Amount in Urine (single oral 450 mg DOV 21,947 HCl IR, Period 8-12 hr): 61.2 µg
Mean Amount in Urine (single oral 450 mg DOV 21,947 HCl IR, Period 12-24 hr): 63.5 µg
Mean Amount in Urine (single oral 450 mg DOV 21,947 HCl IR, Total (0-24 hr)): 261 µg
λz (single oral 450 mg DOV 21,947 HCl IR, mean, N = 10): 0.035 h⁻¹

Source: US20160346249A1 (priority 2012, published 2016)
